Experimental data taken from patent publication US20250268967A1, “NUTRACEUTICAL COMPOUNDS USEFUL IN THE TREATMENT OF CORONAVIRUS DISEASE” (priority 2020, published 2025).
Like-named read-outs stand apart in the source and are kept apart here.

Legend:
[1] = infected patients, 60 mg daily for four months; in words; cited from earlier work
COVID-19 protease = COVID-19 protease (Severe acute respiratory syndrome coronavirus 2, UniProt P0DTD1); conditions: molecular docking, in words; cited from earlier work
in vitro = conditions: human
Calu-3 cells = conditions: in words
SARS-CoV-2 [2] = experiment: microbe, parasite or virus in culture; assay type: cell-based
SARS-CoV-2 [3] = experiment: In vitro antiviral immunostaining assay in Calu-3 cells; assay type: cell-based
[4] = from three publications; read-out: cytotoxicity (CC50); cited from earlier work
[5] = biological target: T1, α-globulin (vitamin D-Binding Protein [DBP]) (Homo sapiens, UniProt P02774); conditions: binds weakly to α-globulin (DBP) after absorption via chylomicrons; cited from earlier work
T1 sequence (P02774 17-474): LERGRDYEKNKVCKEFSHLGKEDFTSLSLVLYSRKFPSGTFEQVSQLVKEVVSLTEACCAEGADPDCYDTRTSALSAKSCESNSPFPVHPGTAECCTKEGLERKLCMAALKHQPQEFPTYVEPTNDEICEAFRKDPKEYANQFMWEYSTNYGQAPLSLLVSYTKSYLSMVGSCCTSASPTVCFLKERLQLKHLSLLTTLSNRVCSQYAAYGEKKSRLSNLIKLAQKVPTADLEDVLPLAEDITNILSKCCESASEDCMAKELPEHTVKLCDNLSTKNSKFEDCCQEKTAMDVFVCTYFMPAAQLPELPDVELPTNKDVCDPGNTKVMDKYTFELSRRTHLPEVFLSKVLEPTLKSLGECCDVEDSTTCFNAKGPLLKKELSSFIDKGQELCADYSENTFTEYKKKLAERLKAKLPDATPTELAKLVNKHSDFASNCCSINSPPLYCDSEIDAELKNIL

SARS-CoV-2 [6] = experiment: In vitro antiviral assay, VeroE6 cells and Calu3 cells (cell line not separated in the statement); conditions: for inhibition of the SARS-CoV-2 virus: cell line not specified (FIG. 2, FIG. 6)
SARS-CoV-2 [7] = experiment: In vitro antiviral immunostaining assay in Vero E6 cells

In the case of CC1=C(/C=C/C(C)=C/C=C/C(C)=C/C=C/C=C(C)/C=C/C=C(C)/C=C/C2=C(C)CCCC2(C)C)C(C)(C)CCC1 [Beta Carotene, Beta-carotene], the clinical toxicity [1] is given as “No clinical toxicity was observed”.
For C[C@@H]1C(=O)O[C@H]2C[C@@]34[C@H]5C[C@@H](C(C)(C)C)[C@]36[C@@H](OC(=O)[C@@H]6O)O[C@@]4(C(=O)O5)[C@]21O [Ginkgolide A], the “predicted binding affinity to the COVID-19 protease” value (COVID-19 protease) is listed as “high binding affinity”.
In the case of CC(C)=CCC[C@](C)(O)[C@@H]1CC=C(C)CC1 [Levomenol, α-(−)-bisabolol], the CC50 (in vitro) is reported as 3 µM, the “cytotoxicity, as measured by inhibition of cell viability” value (Calu-3 cells) is reported as “not observed” and the “selectivity index (SI)” value (SARS-CoV-2 [2]; Calu-3 cells, from CC50 and EC50) is reported as 26.1. The EC50 (SARS-CoV-2 [2]; Severe acute respiratory syndrome coronavirus 2, Calu-3 cells infected with SARS-CoV-2, FIG. 4, read-out: EC50 (antiviral activity against SARS-CoV-2)) was 0.115 µM and the “inhibition of the virus” value (SARS-CoV-2 [3]; Calu-3 cells infected with SARS-CoV-2, FIG. 3) was “about 60%”.
For CCC(CC)COC(=O)[C@H](C)N[P@](=O)(OC[C@H]1O[C@@](C#N)(c2ccc3c(N)ncnn23)[C@H](O)[C@@H]1O)Oc1ccccc1 [Remdesivir], the CC50 [4] is given as > 100 µM.
In the case of C=C1CC[C@H](O)C/C1=C/C=C1\CCC[C@]2(C)[C@@H]([C@H](C)CCCC(C)C)CC[C@@H]12 [Vitamin D3, cholecalciferol], the protein binding [5] is given as 50-80%, the “inhibition of the SARS-CoV-2 virus” value (SARS-CoV-2 [6]) is given as “about 100%” and the EC100 (SARS-CoV-2 [7]; Vero E 6 cells, SARS-CoV-2, in words) is given as “Achieved”. The IC50 (SARS-CoV-2 [7]; VeroE6 cells, FIG. 2) was ~33.5 µM and the IC50 (SARS-CoV-2 [3]; Severe acute respiratory syndrome coronavirus 2, Calu-3) was ~22.3 µM.
For [Zn] [Zinc], the “cytotoxicity, as measured by cell viability” value (SARS-CoV-2 [6]; FIG. 6, in words) was “not observed” and the “inhibition of the SARS-CoV-2 virus” value (SARS-CoV-2 [6]) was “about 75%”.
